Laboratory results from the supplement of paper PMC10307832.

Legend:
Test in all cases: relative viability (nuclei count vs DMSO), 5 days (fraction); higher = more cells survive
AZD6482 + Dasatinib = compound: Cc1cc([C@@H](C)Nc2ccccc2C(=O)O)c2nc(N3CCOCC3)cc(=O)n2c1 [AZD6482] + Cc1nc(Nc2ncc(C(=O)Nc3c(C)cccc3Cl)s2)cc(N2CCN(CCO)CC2)n1 [Dasatinib] (partner 0.075 µM)
Method in brief: (§1)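 Lung cancer cell lines were seeded in 1536-well plates and dosed by pin tool the next day, with either a single drug or a fixed anchor-drug dose combined with five library-drug doses (not always all listed) spaced in √10 steps. Five days later, one step fixed the cells and stained their nuclei (final 0.05% Triton X-100, 1% formaldehyde, 1 ug/ml Hoechst), and nuclei were counted on 4× images. Relative viability is the nuclei count in treated wells divided by the count in vehicle wells, and each value is the median of duplicate plates.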

AZD6482 + Palbociclib = compound: Cc1cc([C@@H](C)Nc2ccccc2C(=O)O)c2nc(N3CCOCC3)cc(=O)n2c1 [AZD6482] + CC(=O)c1c(C)c2cnc(Nc3ccc(N4CCNCC4)cn3)nc2n(C2CCCC2)c1=O [Palbociclib] (partner 0.5 µM)
Method in brief: as §1

[1] = compound: COc1cc2nc(N3CCCN(C)CC3)nc(NC3CCN(Cc4ccccc4)CC3)c2cc1OC + CC(C)C[C@H](NC(=O)[C@H](Cc1ccccc1)NC(=O)c1cnccn1)B(O)O [Bortezomib] (partner 0.002 µM)
Method in brief: as §1

[2] = compound: COc1cc2nc(N3CCCN(C)CC3)nc(NC3CCN(Cc4ccccc4)CC3)c2cc1OC + C[C@]1(O)C[C@@H](c2nc(-c3ccc4ccc(-c5ccccc5)nc4c3)c3c(N)nccn32)C1 [Linsitinib] (partner 1 µM)
Method in brief: as §1

Row | Cell Line | relative viability (AZD6482 + Dasatinib; first compound 0.08 µM) | relative viability (AZD6482 + Dasatinib; first compound 0.253 µM) | relative viability (AZD6482 + Dasatinib; first compound 0.8 µM) | relative viability (AZD6482 + Dasatinib; first compound 2.53 µM) | relative viability (AZD6482 + Dasatinib; first compound 8 µM) | relative viability (AZD6482 + Palbociclib; first compound 0.08 µM) | relative viability (AZD6482 + Palbociclib; first compound 0.253 µM) | relative viability (AZD6482 + Palbociclib; first compound 0.8 µM) | relative viability (AZD6482 + Palbociclib; first compound 2.53 µM) | relative viability (AZD6482 + Palbociclib; first compound 8 µM) | relative viability ([1]; first compound 0.2 µM) | relative viability ([1]; first compound 0.6325 µM) | relative viability ([1]; first compound 2 µM) | relative viability ([1]; first compound 6.325 µM) | relative viability ([2]; first compound 0.2 µM) | relative viability ([2]; first compound 0.6325 µM) | relative viability ([2]; first compound 2 µM) | relative viability ([2]; first compound 6.325 µM)
1 | NCI-H522 | 0.832 | 0.783 | 0.879 | 0.974 | 0.747 | 1.07 | 0.933 | 0.691 | 0.805 | 0.825 |  |  |  |  |  |  |  | 
2 | NCI-H596 | 0.7 | 0.586 | 0.601 | 0.514 | 0.642 |  |  |  |  |  | 1.21 | 1.17 | 0.959 | 0.763 | 1.12 | 1.02 | 1.17 | 0.992
3 | NCI-H1299 |  |  |  |  |  |  |  |  |  |  | 1.01 | 1.01 | 1.02 | 1.05 | 1.01 | 0.939 | 1.1 | 0.97
4 | NCI-H1395 | 0.348 | 0.346 | 0.357 | 0.29 | 0.369 | 0.49 | 0.486 | 0.482 | 0.401 | 0.456 |  |  |  |  | 1.16 | 1.13 | 0.912 | 1.12
5 | NCI-H1563 | 0.487 | 0.479 | 0.442 | 0.449 | 0.465 |  |  |  |  |  | 0.849 | 0.921 | 0.808 | 0.778 | 1.29 | 1.19 | 1.19 | 1.16
6 | NCI-H1623 | 0.521 | 0.524 | 0.457 | 0.426 | 0.395 |  |  |  |  |  |  |  |  |  |  |  |  | 
7 | NCI-H1648 |  |  |  |  |  | 0.313 | 0.275 | 0.265 |  | 0.242 |  |  |  |  |  |  |  | 
8 | NCI-H1650 | 0.224 | 0.278 | 0.316 | 0.234 | 0.318 | 0.312 | 0.271 | 0.269 | 0.267 | 0.288 | 0.228 | 0.189 | 0.2 | 0.216 |  |  |  | 
9 | NCI-H1703 |  |  |  |  |  |  |  |  |  |  | 0.37 | 0.379 | 0.316 | 0.203 | 0.593 | 0.398 | 0.533 | 0.69
10 | NCI-H1793 | 0.387 | 0.34 | 0.351 | 0.249 | 0.358 | 0.243 | 0.215 | 0.271 | 0.215 | 0.225 |  |  |  |  | 0.912 | 1.02 | 1.21 | 0.959
11 | NCI-H1944 | 0.223 | 0.191 | 0.238 | 0.172 | 0.182 | 0.293 | 0.313 | 0.295 | 0.285 | 0.211 |  |  |  |  | 1.11 | 1.23 |  | 1.13
12 | NCI-H2170 | 0.482 | 0.424 | 0.585 | 0.544 | 0.486 | 0.36 | 0.387 | 0.387 | 0.384 | 0.347 |  |  |  |  |  |  |  | 
13 | NCI-H2342 | 0.301 | 0.292 | 0.34 | 0.277 | 0.31 | 0.536 | 0.499 | 0.506 | 0.54 | 0.448 |  |  |  |  |  |  |  | 
14 | SK-MES-1 | 0.179 | 0.235 | 0.169 | 0.125 | 0.168 | 0.282 | 0.293 | 0.295 | 0.282 | 0.301 |  |  |  |  | 1 | 1 | 1.08 | 1.01
15 | SW 900 | 0.446 | 0.419 | 0.462 |  | 0.252 | 0.474 | 0.434 | 0.348 | 0.355 | 0.389 |  |  |  |  |  |  |  | 
